Publication PMC10692721, “Drug discovery for heart failure targeting myosin-binding protein C” (The Journal of Biological Chemistry, 2023)
*1 amine or outer side, *2 acyl side, *3 side chain or, on linkers, in order; H or OH if unused. Where a SMILES comes first, the peptide text is derived from it. Bridges are numbered along the chain shown (N, C = ends). [ ]: non-standard residue; d: D form. The star is where a group is joined. Orn(4R-OH,5R-OH) = O=C([C@H](C[C@@H](O)[C@@H](O)N[*:3])N[*:1])[*:2]; Tetradecanoyl(10R,12S-Me2) = CC[C@H](C)C[C@H](C)CCCCCCCCC(=O)*; hTyr(3S-OH,4S-OH) = N[C@H](C(=O)O)[C@H](O)[C@@H](O)c1ccc(O)cc1; Gln(3R-OH) = NC(=O)C[C@@H](O)[C@H](N)C(=O)O; Pro(3S-OH) = O=C(O)[C@H]1NCC[C@@H]1O; Hyp = O=C(O)[C@@H]1C[C@@H](O)CN1

Key:
[1] = tested on: PKA-phosphorylated TMR-cC0-C2 (cC0-C2#P); assay: FLT-TMR concentration-response assay, PKA-phosphorylated cC0-C2; assay type: binding, human; conditions: 60 μM compound
Summary of the method: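 Hits tested at eight concentrations (0.5–100 μM) and read on a high-throughput fluorescence lifetime plate reader. Hill fits applied only under certain conditions.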

[2] = tested on: bovine cardiac (left ventricular) myofibrils; assay: Cardiac myofibril ATPase assay; assay type: biochemical; conditions: 50 μM compound, pCa 8 to pCa 4
Protocol: Rabbit psoas and bovine cardiac myofibrils were prepared as described in our previous study ([17]). An enzyme-coupled, NADH-linked ATPase assay was used to measure skeletal and cardiac myofibril ATPase activity in 96-well microplates at 23 °C. Ionic strength was maintained below 0.2 M, so myofilaments remained insoluble and stable ([32]). To achieve optimal enzymatic activities, buffers for skeletal and cardiac myofibrils differed slightly ([33], [34]): skeletal in 50 mM MOPS, 100 mM KCl, 5 mM MgCl2, 1 mM EGTA, pH 7.0; cardiac in 20 mM MOPS, 35 mM NaCl, 5 mM MgCl2, 1 mM EGTA, pH 7.0. Each well in the microplate contained an assay mix of 0.84 mM phosphoenolpyruvate, 0.17 mM NADH, 10 U/vol pyruvate kinase, 20 U/vol lactate dehydrogenase. The concentration of free Ca^2+ was controlled by EGTA buffering ([35]). Myofibrils were dispensed in microplates with a multichannel pipette and were incubated with assay mix plus compound of interest for 20 min at 23 °C. The concentration of myofibrils used was 0.01 mg/ml for skeletal and 0.05 mg/ml for cardiac myofibrils. The assay was started upon the addition of ATP, at a final concentration of 2.1 mM (total volume to 200 μl), and absorbance was recorded at 340 nm in a SpectraMax Plus microplate spectrophotometer from Molecular Devices. The steady-state myofibrillar ATPase rate was measured from NADH oxidation, measured as the rate of decrease in absorption at 340 nm for 30 min, with absorption data collected every 15 s. All data and statistical analysis of steady-state kinetics were conducted with the OriginPro program. The results were fitted with the Hill equation:(6) […] is the ATPase rate and n is the Hill coefficient. ATPase activity is reported on the μmol ATP/mg protein/min scale. Average data are presented as mean ± SD. Sample means are derived from three different myofibril preps (N = 3), each done in duplicate (n = 6). The effects of compounds on ATPase activity of myofibrils were determined in the presence of 50 μM compound, across a 12-point pCa range from 4.0 (activation) to 8.0 (relaxation). The calcium sensitivity (pCa50) was determined by fitting the curves to the Hill equation. […] The normalized ATPase activity of the selected compounds can be found in Figure 6.

SMILES: CC[C@H](C)C[C@H](C)CCCCCCCCC(=O)N[C@H]1C[C@@H](O)[C@@H](O)NC(=O)[C@@H]2[C@@H](O)CCN2C(=O)[C@H]([C@H](O)CC(N)=O)NC(=O)[C@H]([C@H](O)[C@@H](O)c2ccc(O)cc2)NC(=O)[C@@H]2C[C@@H](O)CN2C(=O)[C@H]([C@@H](C)O)NC1=O [Pneumocandin B0] ({Tetradecanoyl(10R,12S-Me2)}-[Orn(4R-OH,5R-OH)]T[Hyp][hTyr(3S-OH,4S-OH)][Gln(3R-OH)][Pro(3S-OH)]; lactam 1-C)
- cC0-C2#P FLT change (% change from DMSO, FLT of TMR-MyBP-C) [1]: 13.2%
- effect on cardiac MF ATPase activity (in words) [2]: ATPase-activating effect
